Assay results reported in patent US9610249B2, “Dosage and administration for preventing cardiotoxicity in treatment with ERbB2-targeted immunoliposomes comprising anthracycline chemotherapeutic agents” (MERRIMACK PHARMACEUTICALS, INC., priority 2010, dated 2017).

Legend:
phospho-HSP27 = type: cell-based
Description: (§1) Cardiomyocytes are treated as described above. Cells are fixed using 3.7% formaldehyde, washed twice with PBS containing 0.1% Tween-20 (PBS-T), and permeabilized with methanol. Cells are blocked using a 1:1 mixture of LI-COR® Odyssey® Blocking Buffer (Lincoln, Nebr.) and PBS-T for 1 h at room temperature (RT). Cells are stained with a 1:400 dilution of the indicated primary antibody from Cell Signaling Technology (Beverly, Mass.) and incubated shaking at 4° C. overnight. Cells are washed and incubated with a 1:2,000 dilution of the fluorescently labeled secondary antibody for 1 h at RT. Cells are stained with a 1:10,000 dilution of Hoechst 33342 and 1:1,000 dilution of Whole Cell Stain from Pierce Protein Research Products (Rockford, Ill.) for 30 min at RT to allow visualization of DNA and the whole cell, respectively. Plates are scanned using the Applied Precision Instruments ArrayWorx® High Content Scanner (Issaquah, Wash.) with a 10× objective for Hoechst 33342/Whole Cell Stain (460 nm), doxorubicin (595 nm), and APC/DiI5 (657 nm). Images are analyzed using the software ImageRail (as described in Millard et al., Nat Methods. 2011; 8:487-92). An intensity threshold is established for nuclear and whole cell signals. This threshold is then applied to all images and used to segment individual cells. […]

[1] = Biodistribution of doxorubicin in heart tissue of NCI-N87 tumor bearing mice (HPLC); settings: 3 mg/kg dox equiv. i.v.
Description: 5-7-week-old female nude mice are purchased from Charles River Laboratories or Taconic Farms, Inc (NCr nude mice). Unless otherwise indicated, mice are inoculated with BT474-M3 breast cancer cells or NCI-N87 gastric cancer cells (NCI-DTP, 10×10^6 cells in 100 μl RPMI) into the right dorsal flank of the mice (subcutaneous injection, s.c.). When the tumors reach an average volume of ˜200 mm^3, studies are performed as described below.
(§2) Mice are randomized into 4 groups that received a single intravenous (i.v.) dose of either PBS, doxorubicin, MM-302-DiI5 or PLD-DiI5 (all at 3 mg/kg), respectively. Mice (n=4/time point/group) are sacrificed at 0.5, 4, 24 and 96 h (doxorubicin) or 168 h (MM-302-DiI5 and PLD-DiI5) after the single dose. Five minutes before sacrificing, mice are injected i.v. with 100 μl of FITC-lectin, to label the vasculature.
Heart tissues are weighed and disaggregated with 1 mL H2O using a TissueLyser™ (Qiagen) for 3 min. 100 μl of the homogenate is then transferred into a new tube and 900 μl of 1% acetic acid/methanol is added. For the cultured cells, cells are treated with drug, as described above, trypsinized and lysed using 1.0% acetic acid in methanol. Lysates are vortexed for 10 sec. and placed at −80° C. for 1 h. Samples are spun at room temperature (RT) for 10 min at 10,000 RPM. Supernatants and doxorubicin standards are analyzed by HPLC (Dionex) using a C18 reverse phase column (Synergi™ POLAR-RP® 80 Å, 250×4.60 mm 4 μm column). Doxorubicin is eluted running a gradient from 30% acetonitrile; 70% 0.1% trifluoroacetic acid (TFA)/H2O to 55% acetonitrile; 45% 0.1% TFA/H2O during a 7 min span at a flow rate of 1.0 ml/min. The doxorubicin peak is detected at 6.5 min using an in-line fluorescence detector excited at 485 nm, and emitting at 590 nm.
The macro-level biodistributions of MM-302 (square), PLD (UT-PLD, triangle) and doxorubicin (free dox, circle) were compared in mouse heart tissue (FIG. 7A), human xenograft tumor tissue (FIG. 7B) and paw tissue (FIG. 7C) in NCI-N87 tumor bearing mice inoculated as described above. Mice (n=4/time point/group) were injected i.v. with MM-302, PLD, or free doxorubicin (all at 3 mg/kg dox equiv.) and hearts were collected at 0.5, 4, 24, and 96 h (for dox) or 168 h (for MM-302 and PLD) post injection and doxorubicin quantified by HPLC (FIG. 7A).

[2] = Nuclear doxorubicin in heart sections (confocal microscopy and image analysis); settings: 3 mg/kg dox equiv. i.v.
Description: as §2

[3] = patients; cited from earlier work
[4] = tested on: Troponin I (iPSd cardiomyocytes)
Description: 15,000 iPSd (iCELL®) cardiomyocytes (Cellular Dynamics International, Madison Wis.) cells are plated per the manufacturer's protocol. […] The supernatant is collected and analyzed using a human Troponin I ELISA (Catalog #: GWB-83A61F, Genway Biotech, San Diego Calif.) per the manufacturer's protocol. A PrestoBlue® Cell Viability Assay (Catalog #: A-13261, Invitrogen, Grand Island, N.Y.) is performed on the remaining cells in 100 μl per the manufacturer's protocol.

gamma-H2AX = type: cell-based, human
Description: as §1

phospho-p53 = assay: High-content analysis of cell stress in cardiomyocytes; type: cell-based, human; settings: ESCd cardiomyocytes, 3 h treatment, 24 h fresh media
Description: as §1

cleaved PARP (cPARP) = type: cell-based
Description: as §1

BT474-M3 cells = assay: Binding and internalization into HER2 over-expressing tumor cells (total and nuclear doxorubicin); type: cell-based, human; settings: BT474-M3 (1.7×10^6 HER2/cell), 15 μg/ml, up to 3 h
iPSd cardiomyocytes [5] = assay: Uptake of liposomes in cardiomyocytes (HPLC); type: cell-based, human; settings: iPSd cardiomyocytes (approximately 200,000 HER2 receptors per cell), 15.0 μg/ml dox equiv.
Description: (§3) iPSd cardiomyocytes are plated per the manufacturer's instructions (Cell Dynamics International Cat #CMC-100-110-001) in a 24-well tissue culture plate at 250,000 cells/well. Two days later, the 0.5 ml of media in the wells is removed and replaced with 0.5 ml of 15.0 μg/ml (dox equiv.) of MM-302, PLD or free doxorubicin. The plates are swirled in a “figure 8 fashion” 20 times to maximize exposure of the cells to the liposomes. Cells are incubated with MM-302, PLD or free doxorubicin for the indicated time period after which the media are removed and the cells are washed once with 0.5 ml of PBS. The PBS is removed and 0.5 ml of 0.05% trypsin is added to each well. The cells are monitored, and once detachment begins, 0.5 ml of medium containing FBS is added to each well to inactivate the trypsin. The cells are collected and placed in microcentrifuge tubes. The cells are spun at 1,500 rpm for 5 minutes at 4° C. […] Samples are run on the HPLC machine and concentration per sample is determined by relating values to a doxorubicin standard curve.
(§4) To determine if the level of HER2 expression on cardiomyocytes is sufficient to induce uptake of MM-302, total cellular doxorubicin was quantified by HPLC following treatment of ESCd (FIG. 4A) and iPSd (FIG. 4B) cardiomyocytes.

ESCd cardiomyocytes = assay: Uptake of liposomes in cardiomyocytes (HPLC); type: cell-based, human; settings: ESCd cardiomyocytes (approximately 70,000 HER2 receptors per cell), 15.0 μg/ml dox equiv.
Description: as §3, §4

iPSd cardiomyocytes [6] = type: cell-based, human
From the text: Exposure to low levels of doxorubicin can be cytotoxic.

phospho-ERK (pERK) = assay: Signaling in iPS-derived cardiomyocytes; type: cell-based, human; settings: 24 hours pretreatment
Description: (§5) Cells are stained and imaged using high content microscopy as described above for (A) pAKT and (B) pERK following a10 minute stimulation with 10 nM and 5 nM of heregulin, respectively. The following primary antibodies are used at a 1:400 dilution in blocking buffer: pERK antibody—Cell Signaling Technology (CST—Danvers Mass.)—Catalog 9106L (Phospho-p44/42 MAPK (Erk1/2) (Thr202/Tyr204) (E10) Mouse mAb #9106); pAKT antibody—CST—Catalog 4060L (Phospho-Akt (Ser473) (D9E) XP™ Rabbit mAb #4060). Secondary antibodies are Anti-mouse IgG (H+L), F(ab′)2 Fragment (Alexa Fluor® 647 Conjugate)—CST—Catalog 4410; Anti-rabbit IgG (H+L), F(ab′)2 Fragment (Alexa Fluor® 647 Conjugate)—CST—Catalog 4414. Whole cell stain and DNA stain (Hoechst 33342) are used as described above. Images are analyzed and individual cells are segmented on the basis of Hoechst 33342 nuclear staining. Single cell signal intensity for each stain is quantified and represented as the mean relative intensity of individual cells.
(§6) After stimulation with 10 nM (FIG. 6A) and 5 nM (FIG. 6B) of heregulin (HRG) for 10 min, the levels of phospho-AKT (pAKT, FIG. 6A) and phospho-ERK (pERK, FIG. 6B) were measured by high content microscopy as described above.

phospho-AKT (pAKT) = assay: Signaling in iPS-derived cardiomyocytes; type: cell-based, human; settings: 24 hours pretreatment
Description: as §5, §6

Question: With `COc1cccc2c1C(=O)c1c(O)c3c(c(O)c1C2=O)C[C@@](O)(C(=O)CO)C[C@@H]3O[C@H]1C[C@H](N)[C@H](O)[C@H](C)O1` [doxorubicin, Doxorubicin] as the compound, how does the phospho-HSP27 (phospho-HSP27) read?
Answer: Its phospho-HSP27 is “dose-dependent increase”.

Question: What about the “clearance of doxorubicin from the heart tissue” value [1] of the same compound?
Answer: Its value is “faster compared to MM-302 and PLD”.

Question: And the “time of peak doxorubicin exposure in the heart” value [1]?
Answer: Its value is 0.5 h.

Question: What about the “doxorubicin in the heart at 0.5 h” value ([1]; 0.5 h post injection) of the same compound?
Answer: Its value is 10 % of injected dose (i.d.)/g tissue.

Question: And the “doxorubicin in the heart at 24 h” value ([1]; 24 h post injection)?
Answer: Its value is 0.77 % of i.d./g tissue.

Question: And the “nuclei positive for doxorubicin in heart tissue at 0.5 h” value ([2]; 0.5 h)?
Answer: The value was “about 50%”.

Question: What about the “nuclei positive for doxorubicin in heart tissue at 4 h” value ([2]; 4 h) of the same compound?
Answer: Its value is 23%.

Question: And the “nuclei positive for doxorubicin in heart tissue at 24 h” value ([2]; 24 h)?
Answer: Its value is “returned to basal levels”.

Question: And the “cumulative doxorubicin exposure that increases the potential for cardiomyopathy and heart failure” value [3]?
Answer: Its value is “above 550 mg/m^2”.

Question: And the “Troponin I in supernatant” value [4]?
Answer: Its value is “marked increase of Troponin I”.

Question: And the “nuclear gamma-H2AX” value (gamma-H2AX)?
Answer: Its value is “dose-dependent increase in nuclear gamma-H2AX”.

Question: And the phospho-p53 (phospho-p53)?
Answer: The phospho-p53 was “dose-dependent increase”.

Question: And the “nuclear cleaved PARP (cPARP) at 5.0 μg/ml” value (cleaved PARP (cPARP))?
Answer: The value was “increase in nuclear cleaved PARP”.

Question: What about the “total cell binding and nuclear doxorubicin accumulation” value (BT474-M3 cells) of the same compound?
Answer: Its value is “freely enter cells and accumulate in the nucleus”.

Question: What about the “total cellular doxorubicin (uptake)” value (iPSd cardiomyocytes [5]) of the same compound?
Answer: Its value is “doxorubicin accumulation in all cells”.

Question: What about the “total cellular doxorubicin (uptake)” value (ESCd cardiomyocytes) of the same compound?
Answer: Its value is “doxorubicin accumulation in all cells”.

Question: What about the “effect on cardiomyocyte viability” value (iPSd cardiomyocytes [6]) of the same compound?
Answer: The value was “marked decrease in viability”.

Question: Which “basal phosphorylation of ERK” value (phospho-ERK (pERK); no heregulin) does the source give for `CS(=O)(=O)CCNCc1ccc(-c2ccc3ncnc(Nc4ccc(OCc5cccc(F)c5)c(Cl)c4)c3c2)o1` [lapatinib] here?
Answer: The value was “reduction in basal phosphorylation”.

Question: What about the “heregulin (HRG)-induced phosphorylation of ERK” value (phospho-ERK (pERK); 5 nM heregulin, 10 min) of the same compound?
Answer: The value was “complete inhibition of HRG-induced phosphorylation”.

Question: And the “basal phosphorylation of AKT” value (phospho-AKT (pAKT); no heregulin)?
Answer: The value was “reduction in basal phosphorylation”.

Question: What about the “heregulin (HRG)-induced phosphorylation of AKT” value (phospho-AKT (pAKT); 10 nM heregulin, 10 min) of the same compound?
Answer: Its value is “complete inhibition of HRG-induced phosphorylation”.
